The numbers were not newly measured in US6815463B2, “Laulimalide derivatives” (Kosan Biosciences, Inc., priority 2001, dated 2004), which cites them from elsewhere.

The subject of the data set is microtubules. The following applies: for stabilization of microtubules: similar to paclitaxel, Mooberry et al. 1999, WO 01/54689.

`C=C1C[C@H](C)C[C@@H]2CC=C[C@@H](C/C=C\C(=O)O[C@H]3C[C@@H](O[C@H]3/C=C/[C@@H]3CC(C)=CCO3)[C@@H](O)[C@@H](O)C1)O2` [isolaulimalide]: the stabilization of microtubules entry is listed as “potent stabilizers of microtubules”. Where the note is “comparison with laulimalide”, the “potency as stabilizer of microtubule polymerization relative to laulimalide” value was “less potent stabilizer of microtubule polymerization than laulimalide”.
With `C=C1C[C@H](C)C[C@@H]2CC=C[C@@H](C/C=C\C(=O)O[C@H]([C@@H](O)/C=C/[C@@H]3CC(C)=CCO3)C[C@@H]3O[C@H]3[C@@H](O)C1)O2` [laulimalide, Laulimalide], the stabilization of microtubules result is listed as “potent stabilizers of microtubules”.
